This is an account of results in publication PMC11901381 (Future Medicinal Chemistry, 2025).

The structures appear in SMILES notation.

Series [1] deals with L. major strain NIH S promastigotes. The experiment in a line: Antipromastigote resazurin assay. The format is cell-based, Leishmania major. The following applies: for AG (activity gain): IC50 (1)/IC50 (compd.), L. major promastigotes; for SI4: SI4 = IC50 Vero/IC50 promastigote, L. major; for IC50: Leishmania major, read-out: Antipromastigote activity IC50.
Series [2] is described as follows: Host cell toxicity, resazurin assay. The format is cell-based. As to conditions: human.
Series [3] deals with L. donovani strain 9515 promastigotes. The experiment in a line: Antipromastigote resazurin assay. The format is cell-based, Leishmania donovani. As to conditions: for AG (activity gain): IC50 (1)/IC50 (compd.), L. donovani promastigotes; for SI1: SI1 = IC50 Vero/IC50 promastigote, L. donovani; for IC50: Leishmania donovani, read-out: Antipromastigote activity IC50.
Another series in a line: General. As to conditions: African green monkey, Vero cells (monkey kidney epithelial cells). The format is cell-based.
Series [4] deals with T. brucei brucei strain GUTat3.1. The series is described as follows: Antitrypanosomal assay. The format is cell-based, Trypanosoma brucei brucei. The following applies: Trypanosoma brucei, read-out: Antitrypomastigote activity IC50 ± SD Tbb GuTat3.1.
Series [5] concerns L. major strain NIH S intramacrophage amastigotes. The experiment in a line: Intramacrophage antileishmanial resazurin assay. The series is classed as cell-based, Leishmania major. As to conditions: for SI5: SI5 = IC50 Vero/static IC50 amastigote; for SI5 / SI6 / SpI4 / SpI3: L. major; for SI6: SI6 = IC50 Vero/cidal IC50 amastigote; for SpI4: SpI4 = IC50 promastigote/cidal IC50 amastigote; for SpI3: SpI3 = IC50 promastigote/static IC50 amastigote.

The subject of series [6] is L. donovani strain 9515 intramacrophage amastigotes. The experiment in a line: Intramacrophage antileishmanial resazurin assay. The format is cell-based, Leishmania donovani. As to conditions: for SpI1: SpI1 = IC50 promastigote/static IC50 amastigote; for SpI2: SpI2 = IC50 promastigote/cidal IC50 amastigote.

For the compound `Cc1ccc(Cn2cc(C=O)c3cc([N+](=O)[O-])ccc32)cc1` [2d, 1-(4-Methylbenzyl)-5-nitro-1 H-indole-3-carbaldehyde], the “AG (activity gain)” value in series [1] is listed as 32.3; in series [3], 61. The compound also gave an SI4 in series [1] of 68. The figures for the IC50 (in series [2]; in the series “General”; in series [4]) were greater than 100 µM, 96.9 ± 5.35 µM and greater than 85 µM, respectively. Moreover, the SI1 in series [3] amounted to 117.
`O=Cc1cn(Cc2cccc(Cl)c2)c2ccc([N+](=O)[O-])cc12` [2f, 1-(3-Chlorobenzyl)-5-nitro-1 H-indole-3-carbaldehyde]: in series [1], the “AG (activity gain)” value is listed as 5.3 and the SI4 is on record as 11. The compound further gave an IC50 in series [2] greater than 100 µM. Further, in series [5], the SI5 is 10, the SI6 worked out at 7 and the SpI4 is 1. Further, in “General”, the IC50 came out at 99.91 ± 0.13 µM. Besides, in series [4], the IC50 is greater than 79 µM.
In series [6] (SI2 = IC50 Vero/static IC50 amastigote, L. donovani), `Cc1ccc(Cn2cc(/C=C3\SC(=S)NC3=O)c3cc([N+](=O)[O-])ccc32)cc1` [3d, (Z)-5-{[1-(4-Methylbenzyl)-5-nitro-1 H-indol-3-yl]methylene}-2-thioxothiazolidin-4-one] displayed an SI2 of 19. The compound further registered an SI3 in series [6] (SI3 = IC50 Vero/cidal IC50 amastigote, L. donovani) of 17. In series [6] (L. donovani), this compound showed a SpI1 of 17 and a SpI2 of 15. Also, the IC50 in series [1] is greater than 100 µM. This compound registered an IC50 in series [2] greater than 100 µM. In series [5], this compound came in with an SI5 of 78, a SpI3 of 79 and a SpI4 of 107. In series [3], the “AG (activity gain)” value is given as 0.6, the IC50 was found to be 87.4 ± 17.8 µM and the SI1 was 1. The midpoint of inhibition in “General”, the IC50, lay at 98.2 ± 1.62 µM. The IC50 in series [4] is greater than 70 µM.
Turning to `O=C1CSC(=S)N1/N=C/c1cn(Cc2ccccc2)c2ccc([N+](=O)[O-])cc12` [4c, (E)-3-{[(1-Benzyl-5-nitro-1 H-indol-3-yl)methylene]amino}-2-thioxothiazolidin-4-one], the IC50 in series [1] was greater than 100 µM; in series [2], greater than 100 µM; in series [3], greater than 100 µM; in the series “General”, greater than 100 µM; in series [4], greater than 60 µM. Besides, the SI5 in series [5] worked out at 38. This compound also showed an SI6 in series [5] of 41. Also, the SpI3 in series [5] amounted to 38. This compound displayed a SpI4 in series [5] of 41.
Consider `O=C1CSC(=S)N1/N=C/c1cn(Cc2cccc(Cl)c2)c2ccc([N+](=O)[O-])cc12` [4f, (E)-3-({[1-(3-Chlorobenzyl)-5-nitro-1 H-indol-3-yl]methylene}amino)-2-thioxothiazolidin-4-one], for which the half-inhibitory concentration (IC50) in series [1] is greater than 100 µM; in series [3], greater than 100 µM; in “General”, 58.8 ± 13.2 µM; in series [4], greater than 56 µM.
In series [6] (L. donovani), `C[C@@H]1[C@H](O)[C@@H](C)/C=C/C=C/C=C/C=C/C=C/C=C/C=C/[C@H](O[C@@H]2O[C@H](C)[C@@H](O)[C@H](N)[C@@H]2O)C[C@@H]2O[C@](O)(C[C@@H](O)C[C@@H](O)[C@H](O)CC[C@@H](O)C[C@@H](O)CC(=O)O[C@H]1C)C[C@H](O)[C@H]2C(=O)O` [AMB, amphotericin B, reference compound] displayed a SpI1 of 0.40 and a SpI2 of 0.04. Besides, in series [5], the SpI3 worked out at 0.1 and the SpI4 came to 0.2. For the same compound, the IC50 in series [3] was 0.02 ± 0.009 µM.
In the series “General”, `CC[C@H]1CN2CCc3cc(OC)c(OC)cc3[C@@H]2C[C@@H]1C[C@H]1NCCc2cc(OC)c(OC)cc21` [Em, emetine, reference compound] registered an IC50 of 0.09 ± 0.009 µM.
Take `O=[N+]([O-])c1ccc2[nH]ccc2c1` [compound 1, 5-nitroindole]: the “Static anti-amastigote activity IC50” value in series [6] (L. donovani 9515 amastigotes in THP-1 macrophages, 24 hours after lysis) was “inactive”; in series [5] (L. major NIH S amastigotes in THP-1 macrophages, 24 hours after lysis), “inactive”. The “AG (activity gain)” value in series [1] and in series [3] was 1 throughout. Besides, the IC50 was 45.8 ± 5.47 µM in series [1]; greater than 100 µM in series [2]; 50.3 ± 1.36 µM in series [3]; 79.5 ± 14.9 µM in “General”; greater than 154 µM in series [4]. In series [1], the SI4 is reported as 2. The same compound returned an SI1 in series [3] of 2.
